# Tested on: SH-SY5Y tauRD-DsRed cells
# Experiment: Neurite outgrowth in SH-SY5Y tauRD-DsRed cells (TUBB3 staining)
# Format: cell-based, human
# Conditions: 10 μM, pre-treated 8 hours, doxycycline 7 days; untreated = 100%
# Procedure: We used SH-SY5Y human cells expressing a DsRed-tagged proaggregation mutant (ΔK280) of the C-terminal repeat domain of tau (tauRD-Gln^244-Glu^372 of the longest tau^441 isoform). The recombinant tauRD-DsRed construct was under the control of a tetracycline-regulated, hybrid human cytomegalovirus (CMV)/TetO2 promoter that can be induced by adding doxycycline. The cell lines were grown in medium containing blasticidin (5 μg/mL) and hygromycin (100 μg/mL).
# SH-SY5Y tauRD-DsRed cells were seeded in 6-well plates (1×10^5/well) in a medium containing all-trans retinoic acid (10 μM, Sigma). After 48 hours of incubation, cells were pre-treated with 10 μM Congo red and 10 μM compound (I) for 8 hours; after which, tauRD-DsRed expression was induced with 1μg/mL doxycycline for 7 days. The cells were then fixed in 4% paraformaldehyde, permeabilized with 0.1% Triton X-100, blocked in 3% BSA, and then stained with the primary antibody anti-TUBB3 (against neuronal Class III β-tubulin) (1:1000; Covance) and with a secondary anti-rabbit Alexa Fluor® 555 antibody (1:500; Molecular Probes). Nuclei were counterstained with 4′,6-diamidino-2-phenylindole (DAPI). The total outgrowth in the untreated, Congo red-treated, and compound (I)-treated cells was assessed using MetaXpress image acquisition and analysis software.
smiles,measurement,value
"Nc1c(/N=N/c2ccc(-c3ccc(/N=N/c4cc(S(=O)(=O)O)c5ccccc5c4N)cc3)cc2)cc(S(=O)(=O)O)c2ccccc12 [Congo red, reference compound]",neurite growth relative to untreated cells,110%
